The source of these data is patent publication US9808016B2, “Pesticide composition for shortening the virus lethal time” (priority 2012, dated 2017).

The subject of data set [1] is Spodoptera litura. The conditions noted are these: for synergistic effects: chemical pesticide combined with the virus, compared with the pesticide alone; for LC50: 3 days after the treatment, NPV 5.5 × 10^5 PIB/ml where combined.
Data set [2] deals with third instar larvae of Spodoptera litura. Kind of data set: Indoor experiments: death rates with seven concentrations of Chlorantraniliprole mixed with nucleopolyhedrovirus (FIG. 2). The format is in vivo. The following applies: 40 ppm of Chlorantraniliprole. The protocol: In the indoor experiments, the third instar larvae of Spodoptera litura were treated with the mixtures of seven different concentrations of Chlorantraniliprole with the nucleopolyhedrovirus. […] The synergistic effect of the mixture was more significant especially in the comparison of the low death rate caused by the low concentration of Chlorantraniliprole (see FIG. 2).

Data set [3] shares this test system. Briefly: Lethal time (LT50/LT90) of third instar larvae treated with nucleopolyhedrovirus and low concentration pesticides. The format is in vivo. The following applies: 1.47 ppm of Chlorantraniliprole alone. The text has this: When treated with 5.5×10^5 PIB/ml of the Spodoptera litura nucleopolyhedrovirus alone, the 50% lethal time (LT50) of the third instar larvae was 9.2 days. But when treated with the formulation of the present invention, 5.5×10^5 PIB/ml of the virus and 1.47 ppm of Chlorantraniliprole, the LT50 was shortened to 1-2 days and the 90% of lethal time (LT90) was achieved by 3-4 days (see Table 1).

For data set [4], the system named is Spodoptera litura. Kind of data set: Control rate of Spodoptera litura in Brassica oleracea crops in the field. The following applies: for Control rate One week after the first treatment / Control rate One week after the second treatment / Control rate One week after the third treatment / Control rate Two weeks after the third treatment / Control rate mean: field, NPV 10^6 PIB/mL, Chlorfluazuron 5 ppm, Chlorantraniliprole 1.47 ppm; for Control rate One week after the first treatment / Control rate One week after the second treatment / Control rate One week after the third treatment / Control rate Two weeks after the third treatment: Brassica oleracea; for Control rate mean: mean of the four assessments. The data set is classed as in vivo. The text has this: Although mixing of proper pesticides can achieve synergistic effects, the mixture with current concentration for field application equals to twice the amount of pesticides used (If the viruses or pesticides are originally used individually, the mixture would be the same concentration used together). […] The content of Chlorantraniliprole used in the present invention (2% of the current registered concentration, 1.47 ppm) was 50 folds lower than the existing application technique. When mixing with Spodoptera litura nucleopolyhedrovirus, the LT50 of the third instar larvae was less than 2 days and the LT90 was only 3-4 days. […] However, when mixing the low concentration of Chlorantraniliprole with the virus, only 2% of the current registered amount of Chlorantraniliprole was mixed with the virus, 85-95% of control rate was achieved (Table 3).
The concentration of the Spodoptera litura nucleopolyhedrovirus: 10^6 PIB/mL; Chlorfluazuron was 5 ppm (20% of the current registered concentration); Chlorantraniliprole was 1.47 ppm (2% of the current registered concentration)

The test system of data set [5] is third instar larvae of Spodoptera litura. Briefly: Cumulative death rates of third instar larvae (FIG. 1). The format is in vivo. The following applies: Chlorantraniliprole 7.36 ppm alone. The text has this: The cumulative death rates of the third instar larvae of Spodoptera litura to 10% of the registered concentration of Chlorantraniliprole (7.36 ppm), nucleopolyhedrovirus (5.5×10^5 PIB/ml) and the mixture of 10% of the registered concentration of Chlorantraniliprole+nucleopolyhedrovirus were shown in FIG. 1. It cost 11 days for the treatment of nucleopolyhedrovirus alone to achieve 100% of death rate. For the treatment of Chlorantraniliprole alone, only 80% of death rate was achieved.

`N#Cc1ccc(CC(=NNC(=O)Nc2ccc(OC(F)(F)F)cc2)c2cccc(C(F)(F)F)c2)cc1` (mixture of isomers) [Metaflumizone]: the synergistic effects entry in the data set on Spodoptera litura [1] is “interfered effects”.
In general, LC50 refers to the concentration lethal to half of the exposed cells or organisms. On to `CNC(=O)c1cc(Cl)cc(C)c1NC(=O)c1cc(Br)nn1-c1ncccc1Cl` [Chlorantraniliprole], for which the death rate in data set [2] is 100%. For the same compound, in the data set with Spodoptera litura [1], the LC50 is recorded as 1.36 ppm and the synergistic effects is on record as 4 folds. In addition, the pest control effect result in data set [3] was “no pest control effect”. For the same compound, in the data set with Spodoptera litura [4], the “Control rate One week after the first treatment” value is given as 31.6%, the “Control rate One week after the second treatment” value came to 22.9%, the “Control rate One week after the third treatment” value was 77.3% and the “Control rate Two weeks after the third treatment” value is −5%. The Control rate mean in the data set with Spodoptera litura [4] came to 32%. Also, the “pest control effects in the field” value in the data set with Spodoptera litura [4] (low concentration (1.47 ppm) administered alone) is recorded as “no pest control effects”. Moreover, the death rate achieved in data set [5] is 80%.
Regarding `O=C(NC(=O)c1c(F)cccc1F)Nc1cc(Cl)c(Oc2ncc(C(F)(F)F)cc2Cl)c(Cl)c1` [Chlorfluazuron], in the data set on Spodoptera litura [1], the LC50 is listed as 7.48 ppm. In addition, in the data set with Spodoptera litura [4], the “Control rate One week after the first treatment” value was −3.2%, the “Control rate One week after the second treatment” value is listed as −50.3%, the “Control rate One week after the third treatment” value is recorded as 38.6% and the “Control rate Two weeks after the third treatment” value is 19.2%. The Control rate mean in the data set with Spodoptera litura [4] is given as 1.0%.
Turning to `CCOCn1c(-c2ccc(Cl)cc2)c(C#N)c(Br)c1C(F)(F)F` [Chlorfenapyr], in the data set on Spodoptera litura [1], the 50% lethal concentration (LC50) is 11.8 ppm.
